We go through twelve molecules from patent publication US20240417387A1, “SULFONYLPIPERAZINYL COMPOUNDS FOR TREATMENT OF BACTERIAL INFECTIONS” (Hoffmann-La Roche Inc., priority 2021, published 2024).

In data set [1] the test system is Escherichia coli ATCC 25922. Briefly: Minimal Inhibitory Concentration (MIC) broth dilution assay, E. coli ATCC 25922. The data set is classed as cell-based. The conditions noted are these: Escherichia coli. How it is done: (§1) The antibacterial activity of molecules was evaluated against the commonly used quality control strain Escherichia coli BW 25113, Escherichia coli ATCC 25922 and the rifampin-resistant mutant strain Klebsiella pneumonia ATCC 43816. Escherichia co/i BW 25113 was obtained from the Coli Genetic Stock Center (CGSC) (strain 7636). Both Escherichia coli ATCC 25922 and Klebsiella pneumonia ATCC 43816 were originally derived from human clinical samples and are available from ATCC (American Type Culture Collection). The in vitro potency of compounds to inhibit Escherichia coli (BW 25113, ATCC 25922) and Klebsiella pneumonia (ATCC 43816) growth was assessed by the MIC (Minimal Inhibitory Concentration) broth dilution method. Specifically compound dilutions were prepared from 10 mM DMSO stock solutions as follows: i) serial 2-fold dilution in 20 μL DMSO were prepared in a master plate (Greiner, Cat No: 651201), ii) 180 μL sterile distilled water was added to each aliquot and iii) 10 μL diluted compounds were transferred into a new assay plate (Costar, 3599).
(§2) Vials of each test microorganisms were maintained frozen in the vapor phase of a liquid nitrogen freezer. Single-use frozen vials of the three strains Escherichia coli BW 25113, Escherichia coli ATCC 25922 (KWTKSTTK, 0335K) and Klebsiella pneumonia ATCC 43816, with predetermined CFU/mL, were taken out from the freezer, thawed at room temperature, and diluted in Cation-Adjusted Mueller Hinton Broth (CAMVIHB) to achieve a final inoculum of 5×10^5 CFU/mL. 90 μL bacteria containing broth was dispensed to the assay plate containing the pre-dispensed compound dilutions and mixed by pipetting 5 times.
(§3) Then the assay plates were incubated for 20 hours at 35° C. in ambient air. Following incubation, the MIC […], the lowest concentration of drug that inhibits visible growth of the microorganism was read with the help of a magnification mirror and recorded.
Background: Broth dilution looks for growth in wells or tubes with falling amounts of substance.

In data set [2] the test system is Escherichia coli BW 25113. Briefly: Minimal Inhibitory Concentration (MIC) broth dilution assay, E. coli BW 25113. It counts as cell-based. The conditions noted are these: Escherichia coli, BW25113, 20 hours at 35° C., CAMHB, read-out: MIC E. coli K-12 BW 25113. How it is done: as §1, §2, §3
The test system of data set [3] is Klebsiella pneumonia ATCC 43816. Briefly: Minimal Inhibitory Concentration (MIC) broth dilution assay, K. pneumonia ATCC 43816. The data set is classed as cell-based. Particulars: Klebsiella pneumoniae, ATCC43816, 20 hours at 35° C., CAMHB, read-out: MIC K. p ATCC 43816. How it is done: as §1, §2, §3
The nature of data set [4]: Human microsome stability assay. Particulars: human liver microsomes 0.5 mg/mL, 37° C., pH 7.4, NADPH regenerating system. The data set is classed as in vitro ADME. How it is done: The human microsomal stability assay is used for early assessment of metabolic stability of a test compound in human liver microsomes.
Human liver microsomes (Cat.NO.: 452117, Corning, USA) were preincubated with test compound for 10 minutes at 37° C. in 100 mM potassium phosphate buffer, pH 7.4. The reactions were initiated by adding NADPH regenerating system. The final incubation mixtures contained 1 µM test compound, 0.5 mg/mL liver microsomal protein, 1 mM MgCl2, 1 mM NADP, 1 unit/mL isocitric dehydrogenase and 6 mM isocitric acid in 100 mM potassium phosphate buffer, pH 7.4. After incubation times of 0, 3, 6, 9, 15 and 30 minutes at 37° C., 300 μL of cold acetonitrile (including internal standard) was added to 100 μL incubation mixture to terminate the reaction. Following precipitation and centrifugation, the amount of compound remaining in the samples were determined by LC-MS/MS. Controls of no NADPH regenerating system at zero and 30 minutes were also prepared and analyzed. […] (Human microsome clearance: <7 mL/min/kg: low; 7-16.2 mL/min/kg: medium; >16.2 mL/min/kg: high)

Data set [5] deals with Escherichia coli UDP-2,3-diacylglucosamine hydrolase (LpxH) (Escherichia coli (strain K12), UniProt P43341). Briefly: Enzymatic IC50 assay of Escherichia coli LpxH (UMP/CMP-Glo luminescence). Particulars: for IC50: Enzymatic IC50 against Escherichia coli LpxH, read-out: IC50 (converted). The data set is classed as biochemical. How it is done: The inhibitory potency of compounds of Escherichia coli UDP-2,3-diacylglucosamine hydrolase (LpxH) was determined in an enzymatic assay. UDP-2,3-diacylglucosamine (UDP-DAG) was purified from the Caulobacter crescentus LpxI D225A mutant protein that contained a tightly bound UDP-DAG molecule. The enzyme was diluted using assay buffer containing 50 mM NaCl, 20 mM Tris-HCl pH7.5, 2.5 mM MnCl2, 0.01% Triton X-100.1 mg/mL BSA, and the final concentration is 2 nM. The compounds were diluted by Agilent liquid handler Bravo, the compound's serial dilution dose ranges from 100 μM to 1.7 nM. Then the enzyme and compounds mixture were incubated at room temperature for 10 mins. The enzymatic assay was started by adding UDP-DAG (FAC is 5 μM) and incubated for 20 mins at room temperature. The plate was then heated to 95° C. for 15 mins on a water batch to stop the reaction. The hydrolysis of UDP-DAG by LpxH yielded 2,3-diacylglucosamine 1-phosphate (lipid X) and UMP, which was converted to ATP and quantified by the luciferase reaction using the UMP/CMP-Glo™ Glycosyltransferase Assay kit from Promega. The compound's inhibitory effect of LpxH is determined by measuring the light change using a luminometer (Envision).
Sequence of Escherichia coli UDP-2,3-diacylglucosamine hydrolase (LpxH) (P43341 whole entry): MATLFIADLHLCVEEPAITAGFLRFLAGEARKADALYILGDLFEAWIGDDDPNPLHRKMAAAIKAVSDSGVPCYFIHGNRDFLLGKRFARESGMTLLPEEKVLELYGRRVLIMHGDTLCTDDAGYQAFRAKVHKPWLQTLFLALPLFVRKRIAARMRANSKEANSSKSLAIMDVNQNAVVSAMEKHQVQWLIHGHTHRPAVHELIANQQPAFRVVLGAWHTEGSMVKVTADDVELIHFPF

Where [6] appears, read: ATCC25922, 20 h, read-out: MIC E. coli ATCC 25922.

pIC50: −log10 of the molar value. Values after ≈ are worked out from the molar mass of the structure shown. Read-outs that look alike come from different tables or passages of the source.

A word on the MIC: it is the least concentration at which growth counts as inhibited. As usually defined, the IC50 is the concentration at which inhibition is half-maximal. As to `N[C@@H]1CC(=O)N(c2ccc(S(=O)(=O)N3CCN(c4cc(C(F)(F)[C@H]5CC[C@H](C(=O)N[C@H]6CNC[C@H]6N)CC5)cc(Cl)n4)CC3)cc2)C1` (stereo in doubt) [Example 011, Trans-4-[[2-chloro-6-[4-[4-[(4R)-4-amino-2-oxo-pyrrolidin-1-yl]phenyl]sulfonylpiperazin-1-yl]-4-pyridyl]-difluoro-methyl]-N-[cis-4-aminopyrrolidin-3-yl]cyclohexanecarboxamide], the MIC in data set [1] (setting [6]), in data set [2] and in data set [3] was 1.1 µg/mL (≈ 1.58 µM) in each case. The “Clearance of Human microsome” value in data set [4] was 11.93 mL/min/kg. Moreover, in data set [5], the IC50 was 17.3 nM.
Consider `N[C@@H]1CC(=O)N(c2ccc(S(=O)(=O)N3CCN(c4cc(C(F)(F)[C@H]5CC[C@H](C(=O)NCC6CNC6)CC5)cc(Cl)n4)CC3)cc2)C1` [Example 002, Trans-4-[[2-[4-[4-[(4R)-4-amino-2-oxo-pyrrolidin-1-yl]phenyl]sulfonylpiperazin-1-yl]-6-chloro-4-pyridyl]-difluoro-methyl]-N-(azetidin-3-ylmethyl)cyclohexanecarboxamide], for which the minimum inhibitory concentration (MIC) in data set [1] (setting [6]), in data set [2] and in data set [3] was 1.8 µg/mL (≈ 2.65 µM) throughout. In addition, the “Clearance of Human microsome” value in data set [4] stood at 6.15 mL/min/kg. Also, in data set [5], the IC50 is less than 2.94 nM.
Usually pIC50 stands for −log10 of the IC50, conventionally taken in molar units. Lower therefore signals a high IC50. Take `NC1CC(=O)N(c2ccc(S(=O)(=O)N3CCN(c4cc(C(F)(F)[C@H]5CC[C@H](C(=O)NCCCO)CC5)cc(Cl)n4)CC3)cc2)C1` (stereo partly drawn) [Example 003, Trans-4-[[2-[4-[4-(4-amino-2-oxo-pyrrolidin-1-yl)phenyl]sulfonylpiperazin-1-yl]-6-chloro-4-pyridyl]-difluoro-methyl]-N-(3-hydroxypropyl)cyclohexanecarboxamide]: the results for the MIC in data set [1] (setting [6]), in data set [2] and in data set [3] were 4.2 µg/mL (≈ 6.28 µM), 1 µg/mL (≈ 1.49 µM) and 2.1 µg/mL (≈ 3.14 µM), respectively. Further, in data set [4], the “Clearance of Human microsome” value was 7.41 mL/min/kg. In data set [5], the pIC50 is more than 8.52.
For the molecule `CC1(N)CCN(C(=O)[C@H]2CC[C@H](C(F)(F)c3cc(Cl)nc(N4CCN(S(=O)(=O)c5ccc(N6C[C@H](N)CC6=O)cc5)CC4)c3)CC2)CC1` [Example 004, Trans-(4R)-4-amino-1-[4-[4-[4-[[4-(4-amino-4-methyl-piperidine-1-carbonyl)cyclohexyl]-difluoro-methyl]-6-chloro-2-pyridyl]piperazin-1-yl]sulfonylphenyl]pyrrolidin-2-one], the MIC turned out to be 1.1 µg/mL (≈ 1.55 µM) in data set [1] (setting [6]), 0.83 µg/mL (≈ 1.17 µM) in data set [2] and 1.1 µg/mL (≈ 1.55 µM) in data set [3]. In addition, in data set [4], the “Clearance of Human microsome” value is reported as 6.15 mL/min/kg. Also, the IC50 in data set [5] is 8.47 nM.
With `CN1CC2(C1)CN(C(=O)[C@H]1CC[C@H](C(F)(F)c3cc(Cl)nc(N4CCN(S(=O)(=O)c5ccc(N6C[C@H](N)CC6=O)cc5)CC4)c3)CC1)C2` [Example 005, Trans-(4R)-4-amino-1-[4-[4-[6-chloro-4-[difluoro-[4-(6-methyl-2,6-diazaspiro[3.3]heptane-2-carbonyl)cyclohexyl]methyl]-2-pyridyl]piperazin-1-yl]sulfonylphenyl]pyrrolidin-2-one], the MIC in data set [1] (setting [6]) turned out to be 2.2 µg/mL (≈ 3.12 µM); in data set [2] it was 3.3 µg/mL (≈ 4.67 µM); in data set [3], 2.2 µg/mL (≈ 3.12 µM). For the same molecule, the “Clearance of Human microsome” value in data set [4] was found to be 6.15 mL/min/kg. Besides, the IC50 in data set [5] is 4.25 nM.
`N[C@@H]1CC(=O)N(c2ccc(S(=O)(=O)N3CCN(c4cc(C(F)(F)[C@H]5CC[C@H](C(=O)NC6CNCC6O)CC5)cc(Cl)n4)CC3)cc2)C1` (some centres unmarked) [Example 006]: the MIC in data set [1] (setting [6]), in data set [2] and in data set [3] was 1.1 µg/mL (≈ 1.58 µM) each time. Moreover, the “Clearance of Human microsome” value in data set [4] is 6.15 mL/min/kg. Further, the IC50 in data set [5] is 4.31 nM.
As for `NC1CC(NC(=O)[C@H]2CC[C@H](C(F)(F)c3cc(Cl)nc(N4CCN(S(=O)(=O)c5ccc(N6C[C@H](N)CC6=O)cc5)CC4)c3)CC2)C1` (stereo partly drawn) [Example 007, Trans-N-(3-aminocyclobutyl)-4-[[2-chloro-6-[4-[4-[(4R)-4-amino-2-oxo-pyrrolidin-1-yl]phenyl]sulfonylpiperazin-1-yl]-4-pyridyl]-difluoro-methyl]cyclohexanecarboxamide], the MIC came to 1.1 µg/mL (≈ 1.62 µM) in data set [1] (setting [6]), 1.1 µg/mL (≈ 1.62 µM) in data set [2] and 0.53 µg/mL (≈ 0.779 µM) in data set [3]. Also, the “Clearance of Human microsome” value in data set [4] worked out at 6.90 mL/min/kg. Also, the IC50 in data set [5] is 7.35 nM.
`NCCCNC(=O)C1CCC(C(F)(F)c2cc(Cl)nc(N3CCN(S(=O)(=O)c4ccc(N5C[C@H](N)CC5=O)cc4)CC3)c2)C1` (stereo partly drawn) [Example 035, N-(3-aminopropyl)-3-[[2-chloro-6-[4-[4-[(4R)-4-amino-2-oxo-pyrrolidin-1-yl]phenyl]sulfonylpiperazin-1-yl]-4-pyridyl]-difluoro-methyl]cyclopentanecarboxamide]: the “Clearance of Human microsome” value in data set [4] worked out at 8.90 mL/min/kg. Besides, the IC50 in data set [5] is 45.9 nM.
Turning to `NCCCNC(=O)C12CC(C(F)(F)c3cc(Cl)nc(N4CCN(S(=O)(=O)c5ccc(N6C[C@H](N)CC6=O)cc5)CC4)c3)(C1)C2` [Example 040], the “Clearance of Human microsome” value in data set [4] turned out to be 6.15 mL/min/kg. Also, in data set [5], the IC50 is 6.13 nM.
The like results for `NCCCNC(=O)[C@H]1CC[C@H](C(F)(F)c2cc(Cl)nc(N3CCC(S(=O)(=O)c4ccc(N5C[C@H](N)CC5=O)cc4)CC3)c2)CC1` [Example 062, Trans-N-(3-aminopropyl)-4-[[2-chloro-6-[4-[4-[(4R)-4-amino-2-oxo-pyrrolidin-1-yl]phenyl]sulfonyl-1-piperidyl]-4-pyridyl]-difluoro-methyl]cyclohexanecarboxamide] were, in that order, 7.74 mL/min/kg and 33 nM.
Consider `C[N+]1(CCN)CCN(C(=O)[C@H]2CC[C@H](C(F)(F)c3cc(Cl)nc(N4CCN(S(=O)(=O)c5ccc(N6C[C@H](N)CC6=O)cc5)CC4)c3)CC2)CC1` [Example 071, Trans-(4R)-4-amino-1-[4-[4-[4-[[4-[4-(2-aminoethyl)-4-methyl-piperazin-4-ium-1-carbonyl]cyclohexyl]-difluoro-methyl]-6-chloro-2-pyridyl]piperazin-1-yl]sulfonylphenyl]pyrrolidin-2-one], for which, in data set [4], the “Clearance of Human microsome” value is 10.73 mL/min/kg. For the same molecule, in data set [5], the IC50 is 14.9 nM.
Regarding `CNC(=O)c1ccc(C(F)(F)c2cc(Cl)nc(N3CCN(S(=O)(=O)c4ccc(N5CC(NCCCN)CC5=O)cc4)CC3)c2)cc1` (centres unmarked) [Example 078, 4-[[2-[4-[4-[4-(3-Aminopropylamino)-2-oxo-pyrrolidin-1-yl]phenyl]sulfonylpiperazin-1-yl]-6-chloro-4-pyridyl]-difluoro-methyl]-N-methyl-benzamide], the MIC is 2.8 µg/mL (≈ 4.14 µM) in data set [1] (ATCC25922, read-out: MIC E. coli ATCC 25922, broth dilution, 20 hours at 35° C., CAMHB, read-out: MIC E. coli K-12 ATCC 25922); 1.4 µg/mL (≈ 2.07 µM) in data set [2]; 2.1 µg/mL (≈ 3.11 µM) in data set [3]. Moreover, the IC50 in data set [5] is 5.92 nM.
